Patent US5880106A, “Oral dosing formulations of dideoxy purine nucleosides” (Bristol-Myers Squibb Company, priority 1997, dated 1999)
Where two headings read alike, the source gives them in different places.

Legend:
[1] = Solution stability of didanosine as a function of pH (stomach degradation model, Acid Neutralization Rate Test); assay type: physicochemical; conditions: water with hcl; pH 5, 37° C., 1/2 hour
[2] = 37° C., cited from earlier work

For OC[C@@H]1CC[C@H](n2cnc3c(O)ncnc32)O1 [Didanosine, 2',3'-Dideoxyinosine], the degraded at 0.5 h [1] is listed as under 4%, the t90 ([2]; pH 7.4) is listed as 16 days and the t90 ([2]; pH 9.5) is listed as 509 days. The t90 ([2]; pH <3) was under 0.0014 days.
